In patent publication US20150352081A1, “USE OF PIDOTIMOD TO TREAT ATOPIC DERMATITIS” (POLICHEM S.A., priority 2012, published 2015):
Square brackets hold non-standard residues; d marks the D form. Peptide text beside a SMILES is read from it. pGlu = O=C1CC[C@@H](C(=O)O)N1; Thz = O=C(O)[C@@H]1CSCN1

Key:
[1] = system: patients affected by atopic dermatitis; assay: Erythema score in patients with atopic dermatitis treated topically with pidotimod cream; type: in vivo, human; design: Effect on erythema score: dose or concentration left out as unconfirmed
Description: (§1) An evaluation of the activity of pidotimod was tested on patients affected by atopic dermatitis, in order to assess the efficacy in terms of improvement of the pathology by means of erythema evaluation. The safety of the treatment was also evaluated. The study was performed in 5 patients (4 females and 1 male, aged between 22-35 years, mean=29) with a clinical diagnosis of atopic dermatitis having as inclusion criteria the affection of the anterior flexural crease of the elbow or of the knee.
(§2) The study product was taken with the composition of the Example 1 at a dosage of two applications daily on the affected skin.
(§3) During the trial, the following visits were performed: • baseline—T0 (before the product use) • intermediate visit—T6 (after 6 weeks of treatment) • final visit—T12 (after 12 weeks of treatment)
The efficacy of the product was expressed by mean of a 5 points erythema score, assessing the score at the baseline, at the intermediate visit and the final one.

[2] = system: patients affected by atopic dermatitis; assay: Safety/tolerability of the treatment in patients with atopic dermatitis; type: in vivo, human; conditions: 5 patients, two applications daily, 12 weeks
Description: as §1, §2, §3

Q: Which results are given for `O=C1CC[C@@H](C(=O)N2CSC[C@H]2C(=O)O)N1` [pidotimod, (4R)-3-(5-oxo-L-prolyl)-1,3-thiazolidine-4-carboxylic acid] ([pGlu]-[Thz]-OH)?
A: Student t test p of the erythema score change ([1]; T12 (12 weeks) vs. T0 (baseline)): < 0.05; Effect on erythema score ([1]; pidotimod cream, two applications daily, 12 weeks, compared to the baseline): able to improve the erythema score; Side effects [2]: no side effects were reported; Tolerability of the treatment [2]: very well tolerated
